Experimental data published in patent US11013779B2, “Small molecule therapeutic inhibitors against picornaviruses, caliciviruses, and coronaviruses” (Kansas State University Research Foundation, priority 2016, dated 2021).

How the values were obtained:
thrombin = thrombin (Homo sapiens, UniProt P00734); type: biochemical
plasmin = plasmin (Homo sapiens, UniProt P00747); type: biochemical
trypsin = trypsin (Homo sapiens, UniProt P07477); type: biochemical
α-chymotrypsin = type: biochemical, human
Factor Xa = Factor Xa (Homo sapiens, UniProt P00742); type: biochemical
Chain of Factor Xa (P00742 235-488 limits assumed): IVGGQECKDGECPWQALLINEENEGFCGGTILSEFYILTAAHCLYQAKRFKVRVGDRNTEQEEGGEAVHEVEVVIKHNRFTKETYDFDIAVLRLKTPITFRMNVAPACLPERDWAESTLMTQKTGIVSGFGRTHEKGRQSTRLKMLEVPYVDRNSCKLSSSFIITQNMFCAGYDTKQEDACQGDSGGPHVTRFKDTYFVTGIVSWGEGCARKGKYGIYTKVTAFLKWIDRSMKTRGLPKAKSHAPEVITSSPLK
Chain of Factor Xa (P00742 41-179 partner limits assumed): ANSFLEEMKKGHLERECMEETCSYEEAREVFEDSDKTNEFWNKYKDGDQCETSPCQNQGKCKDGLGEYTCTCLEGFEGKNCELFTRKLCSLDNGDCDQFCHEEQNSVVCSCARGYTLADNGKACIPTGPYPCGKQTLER

Chain of plasmin (P00747 581-810 limits assumed): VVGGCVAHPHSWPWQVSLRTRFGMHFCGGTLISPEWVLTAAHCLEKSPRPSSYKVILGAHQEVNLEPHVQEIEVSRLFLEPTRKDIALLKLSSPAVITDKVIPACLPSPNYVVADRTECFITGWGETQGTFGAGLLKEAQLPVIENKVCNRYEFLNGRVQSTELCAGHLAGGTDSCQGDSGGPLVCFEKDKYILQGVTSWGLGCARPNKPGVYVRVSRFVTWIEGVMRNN
Chain of plasmin (P00747 97-580 partner limits assumed): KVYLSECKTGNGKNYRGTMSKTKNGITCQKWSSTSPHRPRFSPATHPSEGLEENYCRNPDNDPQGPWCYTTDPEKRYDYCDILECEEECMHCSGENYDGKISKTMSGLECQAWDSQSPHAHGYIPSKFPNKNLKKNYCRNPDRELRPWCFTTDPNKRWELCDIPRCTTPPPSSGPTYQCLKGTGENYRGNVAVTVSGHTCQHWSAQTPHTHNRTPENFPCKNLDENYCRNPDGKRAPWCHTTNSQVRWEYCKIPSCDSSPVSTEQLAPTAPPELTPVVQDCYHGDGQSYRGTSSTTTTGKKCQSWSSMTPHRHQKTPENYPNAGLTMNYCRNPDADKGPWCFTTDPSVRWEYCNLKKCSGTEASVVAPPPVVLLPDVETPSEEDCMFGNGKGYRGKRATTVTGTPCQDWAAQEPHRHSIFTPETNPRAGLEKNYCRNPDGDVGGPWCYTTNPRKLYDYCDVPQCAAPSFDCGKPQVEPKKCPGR

CC(C)C[C@H](NC(=O)OC1CCN(C(=O)OC(C)(C)C)CC1)C(=O)N[C@@H](C[C@@H]1CCNC1=O)C(O)S(=O)(=O)[O-].[Na+] (some centres unmarked) [GC868]
No or minimal inhibition: inhibition of thrombin (thrombin) | inhibition of plasmin (plasmin) | inhibition of trypsin (trypsin) | inhibition of α-chymotrypsin (α-chymotrypsin) | inhibition of Factor Xa (Factor Xa)
